By IC50 is commonly meant the point on the concentration scale where inhibition reaches its midpoint. As a reminder, the EC50 is the concentration at which the effect is half-maximal. For orientation: bioavailability means the share of a dose that reaches the circulation, judged against a reference dose that is usually intravenous. Broadly, the MRT is a mean duration of stay, worked out from the concentration-time curve. The AUC is concentration integrated over time. As a reminder, the clearance is a measure of how efficiently the substance is removed, as volume per time.

This note sets out measurements from ChEMBL document CHEMBL3871307, “Discovery of Chromane Propionic Acid Analogues as Selective Agonists of GPR120 with in Vivo Activity in Rodents” (ACS Med Chem Lett, 2017).

The structures appear in SMILES notation.

Data set [1] deals with Sodium channel protein type 5 subunit alpha (Homo sapiens, UniProt Q14524). Kind of data set: Inhibition of Nav1.5 (unknown origin).
Data set [2] addresses T1, Peroxisome proliferator-activated receptor delta (Homo sapiens) (UniProt Q03181).
T1 sequence (whole entry): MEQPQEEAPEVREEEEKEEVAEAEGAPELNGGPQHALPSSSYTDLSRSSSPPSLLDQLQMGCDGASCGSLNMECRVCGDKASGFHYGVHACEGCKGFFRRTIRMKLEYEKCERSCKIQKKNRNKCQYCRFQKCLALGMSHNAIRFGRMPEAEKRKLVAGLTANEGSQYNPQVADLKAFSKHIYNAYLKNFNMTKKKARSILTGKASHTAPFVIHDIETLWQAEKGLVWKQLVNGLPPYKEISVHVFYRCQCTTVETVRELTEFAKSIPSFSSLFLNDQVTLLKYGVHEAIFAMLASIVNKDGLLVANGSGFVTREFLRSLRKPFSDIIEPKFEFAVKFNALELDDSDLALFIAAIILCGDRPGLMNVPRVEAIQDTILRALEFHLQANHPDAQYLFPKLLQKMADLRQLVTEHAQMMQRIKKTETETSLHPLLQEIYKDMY
Kind of data set: Activity at PPARdelta (unknown origin).

Data set [3] can be described thus: Inhibition of IKr (unknown origin) expressed in HEK293 cells. Type of data set: cell-based, Homo sapiens.
The target in data set [4] is T2, Peroxisome proliferator-activated receptor gamma (Homo sapiens) (UniProt P37231).
T2 sequence (whole entry): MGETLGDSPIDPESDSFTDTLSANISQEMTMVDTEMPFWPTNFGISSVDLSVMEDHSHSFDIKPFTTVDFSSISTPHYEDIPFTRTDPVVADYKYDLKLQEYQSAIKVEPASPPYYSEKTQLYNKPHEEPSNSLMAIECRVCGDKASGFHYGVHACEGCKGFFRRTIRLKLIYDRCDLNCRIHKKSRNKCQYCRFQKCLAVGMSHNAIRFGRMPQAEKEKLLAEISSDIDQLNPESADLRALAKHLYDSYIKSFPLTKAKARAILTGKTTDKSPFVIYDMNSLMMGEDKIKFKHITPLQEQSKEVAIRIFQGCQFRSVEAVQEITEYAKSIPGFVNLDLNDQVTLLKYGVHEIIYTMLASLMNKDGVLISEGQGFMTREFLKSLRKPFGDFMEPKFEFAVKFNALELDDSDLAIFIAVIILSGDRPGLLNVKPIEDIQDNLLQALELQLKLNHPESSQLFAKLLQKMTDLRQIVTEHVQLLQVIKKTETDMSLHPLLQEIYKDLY
Kind of data set: Activity at PPARgamma (unknown origin).

Data set [5] addresses T3, Free fatty acid receptor 4 (Mus musculus, UniProt Q7TMA4).
T3 sequence (Q7TMA4 whole entry): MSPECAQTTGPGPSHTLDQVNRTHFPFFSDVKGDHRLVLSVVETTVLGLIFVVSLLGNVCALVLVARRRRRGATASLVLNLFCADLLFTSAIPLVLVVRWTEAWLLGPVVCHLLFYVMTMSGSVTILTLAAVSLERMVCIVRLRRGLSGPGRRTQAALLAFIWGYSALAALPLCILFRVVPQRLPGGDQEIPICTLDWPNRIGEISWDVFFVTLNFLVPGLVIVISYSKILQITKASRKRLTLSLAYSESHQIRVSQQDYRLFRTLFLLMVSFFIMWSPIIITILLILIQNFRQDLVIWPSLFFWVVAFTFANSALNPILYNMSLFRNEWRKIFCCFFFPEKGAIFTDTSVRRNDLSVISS
The data set is described as follows: Agonist activity at mouse GPR120 expressed in human U2OS cells assessed as beta-arrestin recruitment after 90 mins by luminescence assay. The format is cell-based.

Data set [6] in a line: Plasma concentration in wild type C57BL/6 transverse aortic constriction mouse harboring GPR120 at 150 mg/kg, po measured at 3 hrs. The conditions noted are these: C57BL/6, mouse. Type of data set: ADME, organism-based.
Data set [7] is described as follows: Intrinsic clearance in rhesus monkey plasma at 0.5 mg/kg, iv or 1 mg/kg, po by LC/MS/MS analysis. The following applies: in vivo. The format is ADME, organism-based, Macaca mulatta.
Data set [8] in a line: Terminal half life in rhesus monkey plasma at 0.5 mg/kg, iv or 1 mg/kg, po by LC/MS/MS analysis. The conditions noted are these: read-out: beta t1/2 (converted). The format is ADME, organism-based, Macaca mulatta.
Data set [9] can be described thus: Oral bioavailability in rat plasma at 2 mg/kg by LC/MS/MS analysis. The format is ADME, organism-based.
Data set [10] has as its target T4, Free fatty acid receptor 4 (Homo sapiens, UniProt Q5NUL3).
T4 sequence (Q5NUL3 whole entry): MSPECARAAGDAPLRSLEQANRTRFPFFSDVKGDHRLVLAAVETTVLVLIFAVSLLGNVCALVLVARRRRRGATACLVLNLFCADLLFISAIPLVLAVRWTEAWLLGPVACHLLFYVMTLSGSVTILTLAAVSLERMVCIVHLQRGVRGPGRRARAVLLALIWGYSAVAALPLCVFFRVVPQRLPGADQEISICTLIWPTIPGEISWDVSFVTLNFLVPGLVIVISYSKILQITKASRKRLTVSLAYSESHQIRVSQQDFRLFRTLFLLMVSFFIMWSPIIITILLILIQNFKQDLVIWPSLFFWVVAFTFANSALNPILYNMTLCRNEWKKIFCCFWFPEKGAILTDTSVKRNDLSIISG
Kind of data set: Agonist activity at human GPR120 short isoform expressed in CHOK1 cells assessed as beta-arrestin recruitment after 90 mins by luminescence assay. The format is cell-based, CHO-K1. For orientation: Activated receptors often draw arrestin, which recruitment assays turn into a signal.

For data set [11], the target named is Free fatty acid receptor 1 (Mus musculus, UniProt Q76JU9). The data set is described as follows: Agonist activity at mouse GPR40 assessed as increase in IP1 accumulation after 60 mins by HTRF assay. Type of data set: functional.
A short description of data set [12]: Plasma concentration in GPR120 knockout C57BL/6 transverse aortic constriction mouse at 150 mg/kg, po measured at 3 hrs. Type of data set: ADME, organism-based. The conditions noted are these: C57BL/6, mouse.
Data set [13] can be described thus: Protein binding in rat plasma at 0.1 mg/kg administered as iv casette dose by LC/MS/MS analysis. Type of data set: ADME, organism-based. The following applies: read-out: PPB (converted).
Data set [14] deals with Voltage-dependent L-type calcium channel subunit alpha-1C (Homo sapiens, UniProt Q13936). Kind of data set: Inhibition of Cav1.2 (unknown origin).
Data set [15] can be described thus: Terminal half life in mouse plasma at 2 mg/kg, iv or 30 mg/kg, po by LC/MS/MS analysis. The format is ADME, organism-based. The conditions noted are these: read-out: beta t1/2 (converted).
A short description of data set [16]: Mean residence time in mouse plasma at 2 mg/kg, iv or 30 mg/kg, po by LC/MS/MS analysis. The format is ADME, organism-based.
Data set [17] in a line: AUC in rat plasma at 1 mg/kg, iv by LC/MS/MS analysis. Type of data set: ADME, organism-based.
Data set [18] has as its target T3, Free fatty acid receptor 4. Kind of data set: Agonist activity at mouse GPR120 expressed in CHOK1 cells assessed as increase in IP1 accumulation after 60 mins by HTRF assay. Type of data set: functional, cell-based, CHO-K1. For orientation: Time-resolved FRET reads energy transfer from a long-lived donor to a nearby acceptor.
Data set [19] has as its target T5, Free fatty acid receptor 4 (Homo sapiens) (UniProt Q5NUL3).
T5 sequence (whole entry): T4 sequence (Q5NUL3 whole entry)
Kind of data set: Agonist activity at human GPR120 short isoform expressed in CHOK1 cells assessed as increase in IP1 accumulation at 10 uM after 60 mins by HTRF assay. The format is functional, cell-based. The following applies: CHO-K1.

Data set [20] can be described thus: Volume of distribution at steady state in rhesus monkey plasma at 0.5 mg/kg, iv or 1 mg/kg, po by LC/MS/MS analysis. The format is ADME, organism-based, Macaca mulatta. The conditions noted are these: read-out: Vdss.
Data set [21] in a line: Clearance in rat plasma at 0.1 mg/kg administered as iv casette dose by LC/MS/MS analysis. Type of data set: ADME, organism-based.

Sequence of Voltage-dependent L-type calcium channel subunit alpha-1C (Q13936 whole entry): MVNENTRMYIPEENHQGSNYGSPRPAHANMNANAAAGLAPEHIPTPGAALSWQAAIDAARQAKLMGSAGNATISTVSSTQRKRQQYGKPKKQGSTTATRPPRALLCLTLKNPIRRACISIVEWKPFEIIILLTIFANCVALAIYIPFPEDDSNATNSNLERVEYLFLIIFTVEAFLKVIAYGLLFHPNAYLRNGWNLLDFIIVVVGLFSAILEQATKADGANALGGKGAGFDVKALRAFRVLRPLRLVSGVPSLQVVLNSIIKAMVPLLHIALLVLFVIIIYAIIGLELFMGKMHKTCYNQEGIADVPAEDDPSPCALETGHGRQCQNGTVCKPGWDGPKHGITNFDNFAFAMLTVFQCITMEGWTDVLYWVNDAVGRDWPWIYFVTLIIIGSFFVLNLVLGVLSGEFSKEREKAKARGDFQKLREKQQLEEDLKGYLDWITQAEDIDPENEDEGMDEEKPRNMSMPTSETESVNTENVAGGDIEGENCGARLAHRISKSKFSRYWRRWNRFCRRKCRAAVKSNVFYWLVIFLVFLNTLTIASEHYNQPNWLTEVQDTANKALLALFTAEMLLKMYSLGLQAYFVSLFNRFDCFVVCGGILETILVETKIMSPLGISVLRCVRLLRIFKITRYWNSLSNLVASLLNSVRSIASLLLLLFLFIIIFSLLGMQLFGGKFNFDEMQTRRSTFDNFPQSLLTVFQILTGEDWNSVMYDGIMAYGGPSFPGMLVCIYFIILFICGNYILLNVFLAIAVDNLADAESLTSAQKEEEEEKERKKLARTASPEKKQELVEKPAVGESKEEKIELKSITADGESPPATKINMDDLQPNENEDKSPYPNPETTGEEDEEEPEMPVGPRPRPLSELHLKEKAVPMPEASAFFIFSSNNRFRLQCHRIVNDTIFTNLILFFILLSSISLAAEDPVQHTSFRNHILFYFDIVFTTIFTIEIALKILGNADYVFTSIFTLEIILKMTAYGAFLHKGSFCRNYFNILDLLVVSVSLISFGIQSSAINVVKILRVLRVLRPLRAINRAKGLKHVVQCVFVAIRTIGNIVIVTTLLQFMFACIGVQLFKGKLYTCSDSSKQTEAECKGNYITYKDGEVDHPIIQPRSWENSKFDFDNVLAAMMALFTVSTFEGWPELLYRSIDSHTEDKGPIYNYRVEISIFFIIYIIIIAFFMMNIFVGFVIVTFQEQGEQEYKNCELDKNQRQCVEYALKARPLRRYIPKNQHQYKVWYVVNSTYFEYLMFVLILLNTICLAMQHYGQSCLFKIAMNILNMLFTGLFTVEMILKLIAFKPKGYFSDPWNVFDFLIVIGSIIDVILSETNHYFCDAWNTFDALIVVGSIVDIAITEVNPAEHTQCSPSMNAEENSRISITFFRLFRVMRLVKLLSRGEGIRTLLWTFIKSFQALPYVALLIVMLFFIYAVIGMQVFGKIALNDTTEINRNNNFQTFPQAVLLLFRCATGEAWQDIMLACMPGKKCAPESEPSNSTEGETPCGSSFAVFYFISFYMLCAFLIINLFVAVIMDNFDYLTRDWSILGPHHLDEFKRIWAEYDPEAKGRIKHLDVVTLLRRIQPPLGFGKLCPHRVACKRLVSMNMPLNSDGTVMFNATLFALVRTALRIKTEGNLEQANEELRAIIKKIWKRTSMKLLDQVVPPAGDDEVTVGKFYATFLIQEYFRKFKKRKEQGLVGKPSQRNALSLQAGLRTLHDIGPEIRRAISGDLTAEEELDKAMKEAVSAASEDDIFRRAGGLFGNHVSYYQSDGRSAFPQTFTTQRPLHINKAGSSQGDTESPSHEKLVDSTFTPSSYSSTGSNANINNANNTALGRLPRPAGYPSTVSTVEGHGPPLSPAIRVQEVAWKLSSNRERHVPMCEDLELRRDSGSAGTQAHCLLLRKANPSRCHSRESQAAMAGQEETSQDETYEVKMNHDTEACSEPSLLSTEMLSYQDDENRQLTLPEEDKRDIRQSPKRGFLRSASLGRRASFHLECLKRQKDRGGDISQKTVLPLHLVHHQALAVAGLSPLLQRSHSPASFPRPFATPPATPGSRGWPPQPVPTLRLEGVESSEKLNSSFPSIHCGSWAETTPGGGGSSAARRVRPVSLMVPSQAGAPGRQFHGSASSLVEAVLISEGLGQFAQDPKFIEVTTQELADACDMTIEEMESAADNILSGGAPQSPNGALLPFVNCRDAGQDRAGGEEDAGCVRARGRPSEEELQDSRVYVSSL
Sequence of Sodium channel protein type 5 subunit alpha (Q14524 whole entry): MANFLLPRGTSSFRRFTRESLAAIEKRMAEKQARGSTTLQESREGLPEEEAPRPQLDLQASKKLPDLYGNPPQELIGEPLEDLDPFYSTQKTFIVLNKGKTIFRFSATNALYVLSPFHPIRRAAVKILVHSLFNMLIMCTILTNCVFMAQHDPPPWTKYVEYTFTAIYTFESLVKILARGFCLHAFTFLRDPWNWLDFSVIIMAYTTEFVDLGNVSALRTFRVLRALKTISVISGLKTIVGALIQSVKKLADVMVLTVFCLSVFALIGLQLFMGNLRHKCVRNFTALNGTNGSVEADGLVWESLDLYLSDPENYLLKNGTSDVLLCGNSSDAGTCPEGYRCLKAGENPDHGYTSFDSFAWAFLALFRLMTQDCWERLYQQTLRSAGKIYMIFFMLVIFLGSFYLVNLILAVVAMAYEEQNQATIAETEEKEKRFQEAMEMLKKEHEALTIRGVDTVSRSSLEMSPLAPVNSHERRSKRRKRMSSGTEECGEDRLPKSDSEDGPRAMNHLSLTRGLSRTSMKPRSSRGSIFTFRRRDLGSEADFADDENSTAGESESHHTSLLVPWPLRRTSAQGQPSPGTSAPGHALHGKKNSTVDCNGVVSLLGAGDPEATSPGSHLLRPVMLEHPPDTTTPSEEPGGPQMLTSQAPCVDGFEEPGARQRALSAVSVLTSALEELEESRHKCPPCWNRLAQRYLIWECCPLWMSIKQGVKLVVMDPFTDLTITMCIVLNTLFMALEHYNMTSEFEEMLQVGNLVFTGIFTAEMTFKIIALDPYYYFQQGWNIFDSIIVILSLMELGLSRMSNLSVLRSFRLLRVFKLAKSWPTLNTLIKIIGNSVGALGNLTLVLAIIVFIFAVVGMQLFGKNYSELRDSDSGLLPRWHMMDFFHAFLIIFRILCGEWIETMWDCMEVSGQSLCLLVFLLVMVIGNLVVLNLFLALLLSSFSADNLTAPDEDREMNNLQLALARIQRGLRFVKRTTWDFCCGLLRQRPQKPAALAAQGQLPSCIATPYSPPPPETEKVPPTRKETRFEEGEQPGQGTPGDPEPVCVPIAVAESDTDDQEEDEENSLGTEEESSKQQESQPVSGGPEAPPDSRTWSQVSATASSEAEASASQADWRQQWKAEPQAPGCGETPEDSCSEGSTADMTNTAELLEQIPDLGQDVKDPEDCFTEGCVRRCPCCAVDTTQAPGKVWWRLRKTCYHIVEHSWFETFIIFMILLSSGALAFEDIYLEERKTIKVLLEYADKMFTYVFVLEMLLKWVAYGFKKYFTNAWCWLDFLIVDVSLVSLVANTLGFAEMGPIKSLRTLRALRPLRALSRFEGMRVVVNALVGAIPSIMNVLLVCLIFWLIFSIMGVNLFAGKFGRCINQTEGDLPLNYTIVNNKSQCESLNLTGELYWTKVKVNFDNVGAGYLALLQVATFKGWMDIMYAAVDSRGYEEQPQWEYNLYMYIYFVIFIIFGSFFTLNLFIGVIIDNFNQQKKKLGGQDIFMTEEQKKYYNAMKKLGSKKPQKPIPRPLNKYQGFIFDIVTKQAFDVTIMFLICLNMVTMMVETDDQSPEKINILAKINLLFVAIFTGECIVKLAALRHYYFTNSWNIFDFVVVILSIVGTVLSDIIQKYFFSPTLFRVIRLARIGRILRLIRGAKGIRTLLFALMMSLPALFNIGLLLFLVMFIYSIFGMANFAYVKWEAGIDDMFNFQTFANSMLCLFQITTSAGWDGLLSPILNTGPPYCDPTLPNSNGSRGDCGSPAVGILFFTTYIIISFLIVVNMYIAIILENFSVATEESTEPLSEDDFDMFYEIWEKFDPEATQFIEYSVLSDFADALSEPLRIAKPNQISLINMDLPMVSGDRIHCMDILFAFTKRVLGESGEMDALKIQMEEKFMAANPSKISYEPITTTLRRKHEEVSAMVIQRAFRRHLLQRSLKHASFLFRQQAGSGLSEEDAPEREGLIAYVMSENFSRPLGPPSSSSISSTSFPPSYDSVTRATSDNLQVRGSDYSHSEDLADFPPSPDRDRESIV
Sequence of Free fatty acid receptor 1 (Q76JU9 whole entry): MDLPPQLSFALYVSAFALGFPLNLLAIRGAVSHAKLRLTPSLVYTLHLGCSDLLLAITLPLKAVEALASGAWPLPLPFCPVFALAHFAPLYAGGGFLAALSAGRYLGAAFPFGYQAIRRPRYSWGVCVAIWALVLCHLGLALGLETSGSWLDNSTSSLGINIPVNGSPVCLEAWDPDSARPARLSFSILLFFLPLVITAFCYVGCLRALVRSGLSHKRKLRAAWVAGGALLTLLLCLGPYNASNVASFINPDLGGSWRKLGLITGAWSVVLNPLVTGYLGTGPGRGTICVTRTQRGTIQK

Take `CO[C@H]1C[C@H](Oc2cc(F)c(F)c(-c3ccc4c(c3)CC[C@H](CCC(=O)O)O4)n2)C1`: the IC50 in [1] was 27 µM; in [3], greater than 60 µM; in data set [14], 28 µM. Further, the figures for the Activity in [2], in [4] and in data set [19] were greater than 10 µM, greater than 10 µM and greater than 50%, respectively. Moreover, the EC50 in data set [5] was 6.8 nM; in data set [10], 24 nM; in [11], greater than 10 µM; in data set [18] it was 6.4 nM. In addition, the concentration at 3 h in data set [6] was 43.9 µM; in data set [12] it was 53.4 µM. Further, the CL in data set [7] was determined as 150 mL/min/kg. For the same molecule, the half-life in [8] is 588 min; in [15], 180 min. The same molecule registered a bioavailability in [9] of 93%. Moreover, the fraction unbound in [13] was 0.0024. Also, the MRT in data set [16] stood at 2.4 h. Besides, the AUC in [17] came out at 35.9 µM·h. Also, the Vd in data set [20] is 0.27 L/kg. In data set [21], this molecule yielded a clearance of 1.3 mL/min/kg.
